Literature values as cited in patent publication US20090214598A1, “Monovalent and polyvalent synthetic polysaccharide antigens for immunological intervention in disease” (Eli Lilly and Company, priority 2005, published 2009).

Conditions: literature reports (U.S. Pat. No. 4,395,399; Chedid 1983)

CC(=O)N[C@H]1C(O)O[C@H](CO)[C@@H](O)[C@@H]1O[C@H](C)C(=O)N[C@@H](C)C(=O)N[C@H](CCC(=O)O)C(N)=O (mixture of isomers) [MDP, muramyl dipeptide]
inflammatory response as reported: inflammatory in nature
